# Data reported in patent US11040981B2, “Pyrrolotriazine compounds and methods of inhibiting TAM kinases” (Syros Pharmaceuticals, Inc., priority 2017, dated 2021).
# What was measured:
# AXL = molecular target: T1, AXL (Homo sapiens, UniProt P30530); experiment: TR-FRET kinase activity assay, AXL; format: biochemical; details: ATP at Km, 60 minutes
# T1 sequence (P30530 26-894): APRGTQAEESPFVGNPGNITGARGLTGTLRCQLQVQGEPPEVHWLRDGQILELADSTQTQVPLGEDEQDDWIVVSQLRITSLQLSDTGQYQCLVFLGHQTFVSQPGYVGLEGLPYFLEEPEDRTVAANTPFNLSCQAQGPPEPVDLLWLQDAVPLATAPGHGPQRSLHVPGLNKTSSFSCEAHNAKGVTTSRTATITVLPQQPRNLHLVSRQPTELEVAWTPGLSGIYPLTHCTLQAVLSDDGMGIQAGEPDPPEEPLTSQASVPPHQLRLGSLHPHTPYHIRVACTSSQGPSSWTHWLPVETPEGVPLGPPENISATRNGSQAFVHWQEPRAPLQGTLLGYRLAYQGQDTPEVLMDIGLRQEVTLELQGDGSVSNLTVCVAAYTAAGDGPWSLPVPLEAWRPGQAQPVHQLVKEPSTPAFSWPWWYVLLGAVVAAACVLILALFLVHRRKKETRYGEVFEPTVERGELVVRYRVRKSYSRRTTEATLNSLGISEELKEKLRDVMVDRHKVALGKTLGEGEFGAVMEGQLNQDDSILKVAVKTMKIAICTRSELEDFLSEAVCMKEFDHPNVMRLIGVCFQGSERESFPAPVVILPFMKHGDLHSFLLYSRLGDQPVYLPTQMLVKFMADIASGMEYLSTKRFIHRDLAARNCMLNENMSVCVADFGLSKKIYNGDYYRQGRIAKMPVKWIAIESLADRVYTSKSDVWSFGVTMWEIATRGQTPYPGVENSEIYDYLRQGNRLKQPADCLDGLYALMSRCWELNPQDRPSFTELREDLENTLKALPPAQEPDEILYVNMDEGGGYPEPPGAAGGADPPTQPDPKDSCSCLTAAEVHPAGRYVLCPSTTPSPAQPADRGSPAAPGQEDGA
# Procedure: (§1) IC50 values for compound inhibition of AXL, FLT3, MERTK and TYRO3 activity were determined by using a TR-FRET activity assay. A polypeptide substrate with a fluorescent label is phosphorylated on a tyrosine by each enzyme, where the now phosphorylated product is bound by a Europium-labeled antibody specific to that phosphorylation site. The proximity between the antibody and the substrate gives a signal known as TR-FRET. As the enzyme is inhibited by compound, less phosphorylated peptide product is made causing a decrease in overall signal.
# (§2) Activity assays were performed in a 384-well, small volume, black microplates in an active enzyme volume of 10 μL and final developed volume of 20 μL. Final assay conditions are 50 mM HEPES pH 7.5, 10 mM MgCl2, 1 mM EGTA, 0.01% Brij 35 and 1 mM DTT all at RT. Enzyme, substrate labeled peptide and compound are mixed, and then the reaction is initiated with the addition of ATP at Km concentration for each enzyme. The reaction is allowed to run 60 minutes and then quenched with a 12.5 mM EDTA (ethylenediamine tetraacetic acid) solution. The plate is then developed with the addition of Europium labeled antibody for a final volume of 20 μL and is then incubated for 30 minutes in darkness. Plates are read in a Pherastar plate reader. Data is analyzed in GraphPad PRISM.
# (§3) The results of these assays are shown in Table 1, below, wherein “No.” designates compound number (FIG. 1); “A” represents a value of ≤100 nM; “B” a value of >100 nM and ≤1 μM; “C” a value of >1 μM and ≤10 μM; “D” a value of >10 μM; “ND” is not determined. The ratio of Mer to FLT3 is calculated as follows: FLT3 IC50/Mer IC50. “+” represents a ratio of >2.0 and <10; “++” represents a ratio of between 10 and 100; and “+++” represents a ratio of >100.
# FLT3 = molecular target: T2, FLT3 (Homo sapiens, UniProt P36888); experiment: TR-FRET kinase activity assay, FLT3; format: biochemical; details: ATP at Km, 60 minutes
# T2 sequence (P36888 27-993): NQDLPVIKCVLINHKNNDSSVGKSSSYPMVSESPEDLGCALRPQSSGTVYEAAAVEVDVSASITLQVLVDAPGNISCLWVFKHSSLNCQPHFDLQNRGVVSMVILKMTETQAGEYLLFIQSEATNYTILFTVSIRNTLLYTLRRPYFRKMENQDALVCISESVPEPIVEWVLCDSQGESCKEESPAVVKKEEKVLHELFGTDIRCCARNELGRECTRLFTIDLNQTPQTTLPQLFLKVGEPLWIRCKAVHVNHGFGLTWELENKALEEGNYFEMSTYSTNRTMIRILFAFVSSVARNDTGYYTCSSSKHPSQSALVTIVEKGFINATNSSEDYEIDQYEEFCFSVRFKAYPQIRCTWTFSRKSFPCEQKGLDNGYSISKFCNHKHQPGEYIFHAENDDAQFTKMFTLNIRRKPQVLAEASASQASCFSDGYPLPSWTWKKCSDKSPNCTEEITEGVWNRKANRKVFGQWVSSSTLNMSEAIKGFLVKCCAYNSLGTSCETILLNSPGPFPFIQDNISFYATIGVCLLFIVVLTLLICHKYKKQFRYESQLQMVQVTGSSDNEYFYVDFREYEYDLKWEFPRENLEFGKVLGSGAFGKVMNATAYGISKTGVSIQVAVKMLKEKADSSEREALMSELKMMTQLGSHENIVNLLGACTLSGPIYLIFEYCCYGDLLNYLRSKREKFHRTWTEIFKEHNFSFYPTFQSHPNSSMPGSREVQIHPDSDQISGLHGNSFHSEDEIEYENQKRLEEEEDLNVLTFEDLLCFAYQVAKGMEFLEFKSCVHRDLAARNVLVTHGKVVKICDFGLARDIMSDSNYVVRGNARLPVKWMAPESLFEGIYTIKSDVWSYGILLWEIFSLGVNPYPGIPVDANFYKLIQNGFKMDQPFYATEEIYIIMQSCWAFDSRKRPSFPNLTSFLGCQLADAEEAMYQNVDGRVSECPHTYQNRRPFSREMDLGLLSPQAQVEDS
# Procedure: as §1, §2, §3
SMILES,IC50 (AXL),IC50 (FLT3)
COCCn1cc(-c2cc([C@H]3CC[C@H](O)CC3)n3nc(N[C@@H](C)COC)ncc23)cn1 [Compound 209],100 to 1000 nM,100 to 1000 nM
Cc1cc(-c2cc([C@H]3CC[C@H](O)CC3)n3nc(N[C@@H](C)CC(F)(F)F)ncc23)cnn1 [Compound 268],100 to 1000 nM,100 to 1000 nM
C[C@@H](CC1CC1)Nc1ncc2c(-c3ccc(CN4CCN(C)CC4)cc3)cc([C@H]3CC[C@H](O)CC3)n2n1 [Compound 216],≤ 100 nM,≤ 100 nM
COC[C@H](C)Nc1ncc2c(-c3cnn(C(C)(C)CO)c3)cc([C@H]3CC[C@H](O)CC3)n2n1 [Compound 265],≤ 100 nM,1000 to 10000 nM
COC[C@H](C)Nc1ncc2c(-c3cncc(C(N)=O)c3)cc([C@H]3CC[C@H](O)CC3)n2n1 [Compound 247],100 to 1000 nM,1000 to 10000 nM
COC[C@H](C)Nc1ncc2c(-c3ccnc(N4CCN(C)CC4)c3)cc([C@H]3CC[C@H](O)CC3)n2n1 [Compound 256],≤ 100 nM,100 to 1000 nM
COC[C@H](C)Nc1ncc2c(-c3ccc4c(c3)CNC4=O)cc([C@H]3CC[C@H](O)CC3)n2n1 [Compound 252],100 to 1000 nM,100 to 1000 nM
C[C@@H](COC(F)F)Nc1ncc2c(-c3cnn(C4COC4)c3)cc([C@H]3CC[C@H](O)CC3)n2n1 [Compound 270],≤ 100 nM,≤ 100 nM
Cc1cc(-c2cc([C@H]3CC[C@H](O)CC3)n3nc(N[C@@H](C)COC(C)C)ncc23)ccn1 [Compound 215],100 to 1000 nM,1000 to 10000 nM
CNC(=O)c1ccc(-c2cc([C@H]3CC[C@H](O)CC3)n3nc(N[C@@H](C)CC(F)(F)F)ncc23)cn1 [Compound 263],≤ 100 nM,≤ 100 nM
COC[C@H](C)Nc1ncc2c(-c3cccc(CN4CCN(C)CC4)c3)cc([C@H]3CC[C@H](O)CC3)n2n1 [Compound 218],100 to 1000 nM,100 to 1000 nM
COC[C@H](C)Nc1ncc2c(-c3cnn(C(C)(C)C)c3)cc([C@H]3CC[C@H](O)CC3)n2n1 [Compound 206],100 to 1000 nM,1000 to 10000 nM
CCCCC[C@H](C)Nc1ncc2c([C@H]3CC[C@H](C(=O)N4CCOCC4)CC3)cc([C@H]3CC[C@H](O)CC3)n2n1 [Compound 108],100 to 1000 nM,100 to 1000 nM
COC[C@H](C)Nc1ncc2c(-c3cncc(CN4CCOCC4)c3)cc([C@H]3CC[C@H](O)CC3)n2n1 [Compound 219],100 to 1000 nM,1000 to 10000 nM
COC[C@H](C)Nc1ncc2c(-c3cnn(CCC#N)c3)cc([C@H]3CC[C@H](O)CC3)n2n1 [Compound 222],≤ 100 nM,100 to 1000 nM
CNC(=O)c1cncc(-c2cc([C@H]3CC[C@H](O)CC3)n3nc(N[C@@H](C)COC)ncc23)c1 [Compound 245],100 to 1000 nM,1000 to 10000 nM
CC(CCF)Nc1ncc2c(-c3ccc(CN4CCOCC4)cc3)cc(C3CCC(O)CC3)n2n1 (centres unmarked) [Compound 244],≤ 100 nM,≤ 100 nM

SMILES,IC50 (AXL),IC50 (FLT3)
"COC[C@H](C)Nc1ncc2c(-c3ccc(C(=O)NC(C)C)nc3)cc([C@H]3CC[C@H](O)CC3)n2n1 [Compound 228, 5-(7-((1r,4S)-4-hydroxycyclohexyl)-2-(((S)-1-methoxypropan-2-yl)amino)pyrrolo[2,1-f][1,2,4]triazin-5-yl)-N-isopropylpicolinamide]",100 to 1000 nM,1000 to 10000 nM
CCCCC[C@H](C)Nc1ncc2c(-c3ccc(CN4CCN(C)CC4)cc3)cc([C@H]3CC[C@H](O)CC3)n2n1 [Compound 104],≤ 100 nM,100 to 1000 nM
COC[C@H](C)Nc1ncc2c(-c3cnn(CC(=O)N4CCN(C)CC4)c3)cc([C@H]3CC[C@H](O)CC3)n2n1 [Compound 240],100 to 1000 nM,100 to 1000 nM
CNC(=O)Cn1cc(-c2cc([C@H]3CC[C@H](O)CC3)n3nc(N[C@@H](C)COC)ncc23)cn1 [Compound 241],100 to 1000 nM,100 to 1000 nM
COCCn1cc(-c2cc([C@H]3CC[C@H](O)CC3)n3nc(N[C@@H](C)CC(F)(F)F)ncc23)cn1 [Compound 262],≤ 100 nM,≤ 100 nM
COC[C@H](C)Nc1ncc2c(-c3cncc(C(=O)N4CCCC4)c3)cc([C@H]3CC[C@H](O)CC3)n2n1 [Compound 232],100 to 1000 nM,1000 to 10000 nM
CC(Nc1ncc2c(-c3ccc(CN4CCOCC4)cc3)cc(C3CCC(O)CC3)n2n1)C(F)(F)F (centres unmarked) [Compound 202],100 to 1000 nM,100 to 1000 nM
COC[C@H](C)Nc1ncc2c(-c3cncc(F)c3)cc([C@H]3CC[C@H](O)CC3)n2n1 [Compound 195],100 to 1000 nM,1000 to 10000 nM
CCCCC[C@H](C)Nc1ncc2c(-c3ccc(CN4CCN(C)CC4)cc3)cc([C@H]3CC[C@@H](O)CC3)n2n1 [Compound 105],100 to 1000 nM,100 to 1000 nM
CC(C)OC[C@H](C)Nc1ncc2c(-c3ccc(CN4CCOCC4)cc3)cc([C@H]3CC[C@H](O)CC3)n2n1 [Compound 214],100 to 1000 nM,1000 to 10000 nM
COC[C@H](C)Nc1ncc2c(-c3ccc(N4CCOCC4)nc3)cc([C@H]3CC[C@H](O)CC3)n2n1 [Compound 254],100 to 1000 nM,100 to 1000 nM
COC[C@H](C)Nc1ncc2c(-c3cnn(CC(=O)N[C@H]4CCOC4)c3)cc([C@H]3CC[C@H](O)CC3)n2n1 [Compound 237],100 to 1000 nM,100 to 1000 nM
COC[C@H](C)Nc1ncc2c(-c3cnn(CC(=O)N(C)C)c3)cc([C@H]3CC[C@H](O)CC3)n2n1 [Compound 238],100 to 1000 nM,100 to 1000 nM
C[C@@H](CC(F)(F)F)Nc1ncc2c(-c3cnn(C4COC4)c3)cc([C@H]3CC[C@H](O)CC3)n2n1 [Compound 269],≤ 100 nM,≤ 100 nM
COC[C@H](C)Nc1ncc2c(-c3ccc(C(=O)N4CCCC4)cc3)cc([C@H]3CC[C@H](O)CC3)n2n1 [Compound 196],≤ 100 nM,100 to 1000 nM
COC[C@H](C)Nc1ncc2c(-c3ccnc(N4CCOCC4)c3)cc([C@H]3CC[C@H](O)CC3)n2n1 [Compound 259],≤ 100 nM,100 to 1000 nM
COC[C@H](C)Nc1ncc2c(-c3cnn(C(F)F)c3)cc([C@H]3CC[C@H](O)CC3)n2n1 [Compound 207],≤ 100 nM,100 to 1000 nM
